Measurements taken from US9352013B2, “Uses of bremelanotide in therapy for female sexual dysfunction” (Palatin Technologies, Inc., priority 2012, dated 2016).

Experiment: Subcutaneous trial in males: vomiting
Format: in vivo, human
Conditions: intramuscular ondansetron
Experimental: In a trial in males, 1 of 6 subjects at the 5-mg dose level, 1 of 6 subjects at the 7.5 mg dose level, and 3 of 6 subjects at the 10-mg dose level experienced vomiting that was mild or moderate in intensity and delayed 6 to 15 hours.

Cc1nccn1CC1CCc2c(c3ccccc3n2C)C1=O (stereo not shown) [ondansetron, reference compound]
Resolution of bremelanotide-associated vomiting: Vomiting could be resolved
